Measured values: ChEMBL document CHEMBL4229455, “Synthesis and anticancer activity of novel bisindolylhydroxymaleimide derivatives with potent GSK-3 kinase inhibition” (Bioorg Med Chem, 2018)

Key:
MOLT-4 = assay: Cytotoxicity against human MOLT4 cells assessed as cell growth at 10 uM after 48 hrs by SRB assay relative to control; format: functional; conditions: MOLT-4, 48 h, read-out: Activity
CDK9/cyclin T1 = CDK9/cyclin T1 (Homo sapiens, UniProt P50750); assay: Inhibition of recombinant full length human CDK9/cyclin T expressed in baculovirus infected Sf9 insect cells using YSPTSPSYSPTSPSYSPTSPSKKKK as substrate in presence of [gamma-33P]ATP
CDK9/cyclin T1, sequence (O60563 whole entry): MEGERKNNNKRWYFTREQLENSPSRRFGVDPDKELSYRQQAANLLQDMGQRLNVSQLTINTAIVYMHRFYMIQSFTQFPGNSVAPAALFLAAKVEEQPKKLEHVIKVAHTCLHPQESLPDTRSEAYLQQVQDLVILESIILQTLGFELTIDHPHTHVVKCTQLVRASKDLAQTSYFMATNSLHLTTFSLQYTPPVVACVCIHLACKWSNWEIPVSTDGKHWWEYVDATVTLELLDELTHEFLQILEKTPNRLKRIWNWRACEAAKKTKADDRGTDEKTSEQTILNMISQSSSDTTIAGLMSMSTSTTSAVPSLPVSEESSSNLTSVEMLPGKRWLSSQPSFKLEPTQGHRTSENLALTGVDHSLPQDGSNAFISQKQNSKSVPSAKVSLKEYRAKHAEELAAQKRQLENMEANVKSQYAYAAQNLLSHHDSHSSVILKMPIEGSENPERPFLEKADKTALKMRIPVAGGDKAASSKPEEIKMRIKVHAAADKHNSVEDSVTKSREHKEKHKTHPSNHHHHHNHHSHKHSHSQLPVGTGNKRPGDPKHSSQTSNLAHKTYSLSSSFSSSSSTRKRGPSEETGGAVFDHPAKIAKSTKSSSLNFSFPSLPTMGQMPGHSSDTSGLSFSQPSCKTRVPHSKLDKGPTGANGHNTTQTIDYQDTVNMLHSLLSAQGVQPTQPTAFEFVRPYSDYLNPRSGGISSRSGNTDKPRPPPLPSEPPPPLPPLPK
CDK9/cyclin T1, sequence (P50750 whole entry): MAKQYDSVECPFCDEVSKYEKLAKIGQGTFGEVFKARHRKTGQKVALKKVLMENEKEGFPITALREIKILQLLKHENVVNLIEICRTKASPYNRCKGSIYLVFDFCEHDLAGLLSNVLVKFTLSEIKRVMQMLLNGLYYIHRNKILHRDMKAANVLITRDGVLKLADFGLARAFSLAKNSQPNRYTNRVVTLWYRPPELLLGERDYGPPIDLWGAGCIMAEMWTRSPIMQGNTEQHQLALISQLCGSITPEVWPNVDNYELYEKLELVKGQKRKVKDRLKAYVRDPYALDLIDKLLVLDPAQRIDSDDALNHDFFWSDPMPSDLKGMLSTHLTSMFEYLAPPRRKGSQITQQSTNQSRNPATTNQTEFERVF

[1] = Inhibition of domestic porcine brain full length […] using RRKHAAIGSpAYSITA as substrate in presence of [gamma-33P]ATP; design: species or system Sus scrofa domesticus
[2] = biological target: Serine/threonine-protein kinase pim-1 (Homo sapiens, UniProt P11309); assay: Inhibition of recombinant full length human PIM1 expressed in bacteria assessed as residual activity at 10 uM using histone H1 as substrate in presence of [gamma-33P]ATP
Serine/threonine-protein kinase pim-1, sequence (P11309 whole entry, looked up): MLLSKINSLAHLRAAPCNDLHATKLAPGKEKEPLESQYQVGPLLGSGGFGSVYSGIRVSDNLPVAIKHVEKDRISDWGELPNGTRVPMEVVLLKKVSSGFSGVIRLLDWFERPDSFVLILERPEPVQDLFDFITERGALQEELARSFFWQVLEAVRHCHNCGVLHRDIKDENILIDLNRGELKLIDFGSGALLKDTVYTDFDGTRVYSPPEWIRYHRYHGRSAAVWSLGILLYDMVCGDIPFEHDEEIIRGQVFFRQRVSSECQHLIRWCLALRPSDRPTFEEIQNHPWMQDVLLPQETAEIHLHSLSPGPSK

RXF 393 = assay: Cytotoxicity against human RXF393 cells assessed as cell growth at 10 uM after 48 hrs by SRB assay relative to control; format: functional; conditions: RXF 393, 48 h, read-out: Activity
SK-MEL-28 = assay: Cytotoxicity against human SK-MEL-28 cells assessed as cell growth at 10 uM after 48 hrs by SRB assay relative to control; format: functional; conditions: SK-MEL-28, 48 h, read-out: Activity
SK-MEL-2 = assay: Cytotoxicity against human SK-MEL-2 cells assessed as cell growth at 10 uM after 48 hrs by SRB assay relative to control; format: functional; conditions: SK-MEL-2, 48 h, read-out: Activity
SK-MEL-5 = assay: Cytotoxicity against human SK-MEL-5 cells assessed as cell growth at 10 uM after 48 hrs by SRB assay relative to control; format: functional; conditions: SK-MEL-5, 48 h, read-out: Activity
OVCAR-5 = assay: Cytotoxicity against human OVCAR5 cells assessed as cell growth at 10 uM after 48 hrs by SRB assay relative to control; format: functional; conditions: OVCAR-5, 48 h, read-out: Activity
Aurora kinase B = Aurora kinase B (Homo sapiens, UniProt Q96GD4); assay: Inhibition of recombinant full length human aurora B expressed in baculovirus infected Sf9 insect cells assessed as residual activity at 10 uM using MBP as substrate in presence of [gamma-33P]ATP
Aurora kinase B, sequence (Q96GD4 whole entry): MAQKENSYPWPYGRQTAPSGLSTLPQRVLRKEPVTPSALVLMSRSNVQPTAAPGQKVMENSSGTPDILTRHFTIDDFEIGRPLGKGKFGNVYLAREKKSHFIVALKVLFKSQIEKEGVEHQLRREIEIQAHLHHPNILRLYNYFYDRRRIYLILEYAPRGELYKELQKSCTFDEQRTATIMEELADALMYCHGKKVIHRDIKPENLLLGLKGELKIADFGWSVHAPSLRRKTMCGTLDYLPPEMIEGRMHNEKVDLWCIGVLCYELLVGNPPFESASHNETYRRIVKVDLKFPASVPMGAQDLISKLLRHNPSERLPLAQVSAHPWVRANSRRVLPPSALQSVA

Hs-578T = assay: Cytotoxicity against human Hs 578T cells assessed as cell growth at 10 uM after 48 hrs by SRB assay relative to control; format: functional; conditions: read-out: Activity
TK-10 = assay: Cytotoxicity against human TK10 cells assessed as cell growth at 10 uM after 48 hrs by SRB assay relative to control; format: functional; conditions: TK-10, 48 h, read-out: Activity
HL-60(TB) = assay: Cytotoxicity against human HL-60(TB) cells assessed as cell growth at 10 uM after 48 hrs by SRB assay relative to control; format: functional; conditions: HL-60, 48 h, read-out: Activity
[3] = biological target: Glycogen synthase kinase-3 (Sus scrofa, UniProt B2LUN4+I6LNT8); assay: Inhibition of domestic porcine brain full length GSK-3alpha/beta using GS-1 as substrate in presence of [gamma-33P]ATP; design: species or system Sus scrofa domesticus
SW-620 = assay: Cytotoxicity against human SW620 cells assessed as cell growth at 10 uM after 48 hrs by SRB assay relative to control; format: functional; conditions: SW-620, 48 h, read-out: Activity
T47D = assay: Cytotoxicity against human T47D cells assessed as cell growth at 10 uM after 48 hrs by SRB assay relative to control; format: functional; conditions: read-out: Activity
HCT-15 = assay: Cytotoxicity against human HCT15 cells assessed as cell growth at 10 uM after 48 hrs by SRB assay relative to control; format: functional; conditions: HCT-15, 48 h, read-out: Activity
UACC-62 = assay: Cytotoxicity against human UACC62 cells assessed as cell growth at 10 uM after 48 hrs by SRB assay relative to control; format: functional; conditions: UACC-62, 48 h, read-out: Activity
ACHN = assay: Cytotoxicity against human ACHN cells assessed as cell growth at 10 uM after 48 hrs by SRB assay relative to control; format: functional; conditions: read-out: Activity
LOX IMVI = assay: Cytotoxicity against human LOXIMVI cells assessed as cell growth at 10 uM after 48 hrs by SRB assay relative to control; format: functional; conditions: read-out: Activity
NCI-H23 = assay: Cytotoxicity against human NCI-H23 cells assessed as cell growth at 10 uM after 48 hrs by SRB assay relative to control; format: functional; conditions: NCI-H23, 48 h, read-out: Activity
BT-549 = assay: Cytotoxicity against human BT549 cells assessed as cell growth at 10 uM after 48 hrs by SRB assay relative to control; format: functional; conditions: BT-549, 48 h, read-out: Activity
[4] = biological target: T1, Receptor-interacting serine/threonine-protein kinase 3 (Homo sapiens, UniProt Q9Y572); assay: Inhibition of recombinant full length human RIPK3 expressed in baculovirus infected Sf9 insect cells using MBP as substrate in presence of [gamma-33P]ATP
Target sequence in this assay (Q9Y572 whole entry, the tested form may be a part): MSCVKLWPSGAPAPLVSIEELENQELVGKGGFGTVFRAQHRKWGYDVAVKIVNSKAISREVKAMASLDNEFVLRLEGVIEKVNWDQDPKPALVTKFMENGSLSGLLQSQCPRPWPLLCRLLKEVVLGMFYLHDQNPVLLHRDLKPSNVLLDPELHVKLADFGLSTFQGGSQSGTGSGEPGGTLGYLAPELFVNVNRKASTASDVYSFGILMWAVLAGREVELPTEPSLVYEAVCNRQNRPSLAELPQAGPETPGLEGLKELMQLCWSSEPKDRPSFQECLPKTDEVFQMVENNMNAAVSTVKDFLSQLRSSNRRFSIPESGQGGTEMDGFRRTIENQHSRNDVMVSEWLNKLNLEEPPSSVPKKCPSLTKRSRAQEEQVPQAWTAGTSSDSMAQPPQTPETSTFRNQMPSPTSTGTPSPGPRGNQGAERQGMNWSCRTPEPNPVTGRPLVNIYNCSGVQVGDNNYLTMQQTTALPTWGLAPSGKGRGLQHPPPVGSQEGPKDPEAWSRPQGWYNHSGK

[5] = biological target: Dual specificity tyrosine-phosphorylation-regulated kinase 1A (Rattus norvegicus) (UniProt Q63470); assay: Inhibition of recombinant rat DYRK1A kinase domain expressed in bacteria assessed as residual activity at 10 uM using KKISGRLSPIMTEQ as substrate in presence of [gamma-33P]ATP
U-251 = assay: Cytotoxicity against human U251 cells assessed as cell growth at 10 uM after 48 hrs by SRB assay relative to control; format: functional; conditions: U-251, 48 h, read-out: Activity
[6] = biological target: T1, Receptor-interacting serine/threonine-protein kinase 3; assay: Inhibition of recombinant full length human RIPK3 expressed in baculovirus infected Sf9 insect cells assessed as residual activity at 10 uM using MBP as substrate in presence of [gamma-33P]ATP
Target sequence in this assay (Q9Y572 whole entry, looked up, the tested form may be a part): as the sequence (Q9Y572 whole entry, the tested form may be a part) above

A549 = assay: Cytotoxicity against human A549 cells assessed as cell growth at 10 uM after 48 hrs by SRB assay relative to control; format: functional; conditions: A549, 48 h, read-out: Activity
OVCAR-4 = assay: Cytotoxicity against human OVCAR4 cells assessed as cell growth at 10 uM after 48 hrs by SRB assay relative to control; format: functional; conditions: OVCAR-4, 48 h, read-out: Activity
SK-OV-3 = assay: Cytotoxicity against human SKOV3 cells assessed as cell growth at 10 uM after 48 hrs by SRB assay relative to control; format: functional; conditions: SK-OV-3, 48 h, read-out: Activity
HCT-116 = assay: Cytotoxicity against human HCT116 cells assessed as cell growth at 10 uM after 48 hrs by SRB assay relative to control; format: functional; conditions: HCT-116, 48 h, read-out: Activity
SNB-19 = assay: Cytotoxicity against human SNB19 cells assessed as cell growth at 10 uM after 48 hrs by SRB assay relative to control; format: functional; conditions: SNB-19, 48 h, read-out: Activity
CCRF-CEM = assay: Cytotoxicity against human CCRF-CEM cells assessed as cell growth at 10 uM after 48 hrs by SRB assay relative to control; format: functional; conditions: read-out: Activity
MDA-MB-468 = assay: Cytotoxicity against human MDA-MB-468 cells assessed as cell growth at 10 uM after 48 hrs by SRB assay relative to control; format: functional; conditions: MDA-MB-468, 48 h, read-out: Activity

Row | SMILES | IC50 (CDK9/cyclin T1) [nM] | IC50 [1] [nM] | Activity [2] [%] | growth at 10 µM (SK-MEL-28) [%] | growth at 10 µM (OVCAR-5) [%] | Activity (Aurora kinase B) [%] | growth at 10 µM (TK-10) [%] | IC50 [3] [nM] | growth at 10 µM (SW-620) [%] | growth at 10 µM (T47D) [%] | growth at 10 µM (HCT-15) [%] | growth at 10 µM (UACC-62) [%] | growth at 10 µM (ACHN) [%] | growth at 10 µM (LOX IMVI) [%] | growth at 10 µM (NCI-H23) [%] | IC50 [4] [nM] | Activity [5] [%] | growth at 10 µM (U-251) [%] | Activity [6] [%] | growth at 10 µM (A549) [%] | also measured
1 | CC(C)n1cc(C2=C(c3cn(C)c4ccccc34)C(=O)N(O)C2=O)c2ccccc21 | 1500 | > 10000 | 28 | 112 | 90.3 | 95 | 127 | 200 | 101 | 87.3 | 96.9 | 78.2 | 88 | 61.5 | 81.8 | > 10000 | 54 | 98.8 | 103 | 97.1 | growth at 10 µM (MOLT-4): 82.4%; growth at 10 µM (RXF 393): 89.2%; growth at 10 µM (SK-MEL-2): 86.6%; growth at 10 µM (SK-MEL-5): 76.2%; growth at 10 µM (Hs-578T): 91.2%; growth at 10 µM (HL-60(TB)): 98.7%; growth at 10 µM (BT-549): 93.2%; growth at 10 µM (OVCAR-4): 99.6%; growth at 10 µM (SK-OV-3): 95.8%; growth at 10 µM (HCT-116): 85.4%; growth at 10 µM (SNB-19): 101%
2 | Cn1cc(C2=C(c3c[nH]c4ccccc34)C(=O)N(O)C2=O)c2ccccc21 | 2000 | > 10000 | 8 | 92 | 95 | 79 | 120 | 200 | 87.7 | 60.9 | 74.8 | 77.4 | 77.9 | 51 | 76.9 | > 10000 | 46 | 98.5 | 100 | 91.9 | growth at 10 µM (MOLT-4): 79%; growth at 10 µM (RXF 393): 86.3%; growth at 10 µM (SK-MEL-2): 76.4%; growth at 10 µM (SK-MEL-5): 72%; growth at 10 µM (Hs-578T): 96.3%; growth at 10 µM (HL-60(TB)): 72.8%; growth at 10 µM (CCRF-CEM): 82.2%; growth at 10 µM (BT-549): 82.7%; growth at 10 µM (OVCAR-4): 103%; growth at 10 µM (SK-OV-3): 92.1%; growth at 10 µM (HCT-116): 83.3%; growth at 10 µM (SNB-19): 97.5%
3 | N#CCCCCCn1cc(C2=C(c3cn(CCCCCC#N)c4ccccc34)C(=O)NC2=O)c2ccccc21 | 420 | > 10000 | 54 | 133 | 128 | 83 | 101 | 120 | 108 | 67.6 | 69.4 | 99.3 | 87 | 69.5 | 97.1 | > 10000 | 9 | 83.8 | 100 | 85.6 | growth at 10 µM (RXF 393): 62.1%; growth at 10 µM (SK-MEL-2): 96.5%; growth at 10 µM (SK-MEL-5): 78.7%; growth at 10 µM (MDA-MB-468): 63.3%; growth at 10 µM (Hs-578T): 59.7%; growth at 10 µM (CCRF-CEM): 73.5%; growth at 10 µM (BT-549): 73.6%; growth at 10 µM (OVCAR-4): 81.2%; growth at 10 µM (SK-OV-3): 57%; growth at 10 µM (HCT-116): 65.9%
4 | Cn1cc(C2=C(c3cn(C)c4ncccc34)C(=O)NC2=O)c2ccccc21 | 80 | > 10000 | 1 | 8 to 51.3 | 13 to 54.6 | 84 | 26.3 to 33 | 30 | 12.9 to 20 | 10 to 24.2 | 21 to 33.4 | 27 to 36.6 | 8 to 26.5 | 16 to 41 | 30 to 49.3 | > 10000 | 30 | 27 | 79 | 21 to 28.8 | growth at 10 µM (MOLT-4): 8 to 12.6%; growth at 10 µM (HL-60(TB)): 3.55 to 9%; growth at 10 µM (CCRF-CEM): 6.61 to 9%; growth at 10 µM (OVCAR-4): 34 to 59%; growth at 10 µM (HCT-116): 15 to 21.9%; growth at 10 µM (SNB-19): 40 to 65%
5 | CC(C)n1cc(C2=C(c3c[nH]c4ccccc34)C(=O)N(O)C2=O)c2ccccc21 | > 10000 | > 10000 | 24 | 116 | 105 | 147 | 84.5 | 1500 | 106 | 86.7 | 99.9 | 90 | 99.6 | 58.8 | 88.2 | > 10000 | 73 | 100 | 97 | 102 | growth at 10 µM (MOLT-4): 77%; growth at 10 µM (RXF 393): 100%; growth at 10 µM (SK-MEL-2): 86.8%; growth at 10 µM (SK-MEL-5): 98.5%; growth at 10 µM (Hs-578T): 111%; growth at 10 µM (HL-60(TB)): 82.6%; growth at 10 µM (CCRF-CEM): 95.8%; growth at 10 µM (BT-549): 99.7%; growth at 10 µM (OVCAR-4): 111%; growth at 10 µM (SK-OV-3): 102%; growth at 10 µM (HCT-116): 85.4%; growth at 10 µM (SNB-19): 111%
6 | Cn1cc(C2=C(c3cn(CCCCCC(=O)O)c4ccccc34)C(=O)N(O)C2=O)c2ccccc21 | 700 | > 10000 | 64 | 106 | 96.3 | 71 | 107 | 3200 | 98.9 | 85.4 | 96.5 | 99 | 92.9 | 80 | 95.2 | > 10000 | 22 | 102 | 106 | 94.6 | growth at 10 µM (MOLT-4): 92.6%; growth at 10 µM (RXF 393): 111%; growth at 10 µM (SK-MEL-5): 97.8%; growth at 10 µM (MDA-MB-468): 102%; growth at 10 µM (Hs-578T): 102%; growth at 10 µM (HL-60(TB)): 103%; growth at 10 µM (CCRF-CEM): 84.4%; growth at 10 µM (BT-549): 103%; growth at 10 µM (OVCAR-4): 94.5%; growth at 10 µM (SK-OV-3): 99.8%; growth at 10 µM (HCT-116): 98.4%; growth at 10 µM (SNB-19): 104%
